Broadly, the IC50 is the concentration needed to halve the response being measured. Read a high IC50 as a need for much substance. As usually defined, the melting point is the temperature, or range, at which the solid turns liquid.

Consider 27 compounds from US7078400B2, “20-HETE synthase inhibitor” (Taisho Pharmaceutical Co., Ltd., priority 1999, dated 2006).

Molecules are shown by their SMILES.

Data set [1] has as its system 20-HETE synthase originated from rat kidney microsome. As to the kind of experiment: Inhibitory effect of 20-HETE synthase originated from rat kidney microsome. As to conditions: for Inhibition rate (1 μM): 1 μM of the subject compound, 20-HETE production without compound set to 100%; for IC50: concentration at which production of 20-HETE was inhibited to 50%. The class given is biochemical. The essentials: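 Kidney microsomes from 6-week male spontaneously hypertensive rats were used with tritium-arachidonic acid and NADPH. 20-HETE was quantified by radio-HPLC on a C18 column.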

`CSCCCOc1ccc(N/C=N/O)cc1` [Comp. 414] came in with a melting point of 132 to 133.5 °C. In addition, in data set [1], the “Inhibition rate (1 μM)” value is listed as 113.2 and the half-maximal inhibitory concentration (IC50) stood at 1 nM.
For `CN1CCCC(COc2ccc(N/C=N/O)cc2)C1` (centres unmarked) [Comp. 415] the same measures were 114 to 117 °C, 103.7 and 17.6 nM.
For `CN1CCCC1CCOc1ccc(N/C=N/O)cc1` (centres unmarked) [Comp. 416] the same measures were 99.5 to 102.5 °C, 85.8 and 16.3 nM.
Regarding `CN1CCCCC1COc1ccc(N/C=N/O)cc1` (centres unmarked) [Comp. 417], the melting point was in the range of 146.5 to 148 °C. Besides, in data set [1], the “Inhibition rate (1 μM)” value was found to be 102.8 and half-maximal inhibition (IC50) required 90 nM.
The like results for `O/N=C/Nc1ccc(OCC2CCCO2)cc1` (centres unmarked) [Comp. 420] were, in that order, 147 to 148.5 °C, 118.6 and 8 nM.
Turning to `O/N=C/Nc1ccc(OCC2CCCCO2)cc1` (centres unmarked) [Comp. 421], the melting point was in the range of 153 to 154.5 °C. Moreover, in data set [1], the “Inhibition rate (1 μM)” value worked out at 113.3 and the IC50 was 3.9 nM.
In turn, `O/N=C/Nc1ccc(OCCc2cccs2)cc1` [Comp. 422] registered a melting point of 132 to 134 °C. Further, in data set [1], the “Inhibition rate (1 μM)” value turned out to be 121.6 and inhibition was half-maximal at 1.5 nM (IC50).
Compound `O/N=C/Nc1ccc(OCCc2ccsc2)cc1` [Comp. 423] returned a melting point of 132 to 134.5 °C. Besides, in data set [1], the “Inhibition rate (1 μM)” value is on record as 118.4 and it took 2.2 nM to reach half-maximal inhibition (IC50).
Turning to `CCOC(=O)CCCCCOc1ccc(N/C=N/O)cc1` [Comp. 424], the melting point was in the range of 102 to 103.5 °C. Besides, the half-maximal inhibitory concentration (IC50) in data set [1] came to 1.5 nM.
For `O=C([O-])CCCCCOc1ccc(N/C=N/O)cc1.[Na+]` [Comp. 425] the same measures were above 300 °C and 3 nM.
The like results for `CC(=O)OCCCCCOc1ccc(N/C=N/O)cc1` [Comp. 426] were, in that order, 101.5 to 104 °C and 5.1 nM.
For `O/N=C/Nc1ccc(OCCCN2CCCCC2)cc1` [Comp. 428] the same measures were 143.5 to 144.5 °C and 51.5 nM.
On to `N#CCCCOc1ccc(N/C=N/O)cc1` [Comp. 430], for which the melting point was in the range of 139.5 to 141 °C. Further, half-maximal inhibition in data set [1] (IC50) was put at 7.4 nM.
In turn, `O/N=C/Nc1ccc(OCCCCCN2CCCCC2)cc1` [Comp. 431] displayed a melting point of 113 to 115 °C. The IC50 in data set [1] is 47.7 nM.
The like results for `O/N=C/Nc1ccc(OCCCCCN2CCCC2)cc1` [Comp. 432] were, in that order, 116.5 to 117.5 °C and 19.5 nM.
For `CCOC(=O)CCCCOc1ccc(N/C=N/O)cc1` [Comp. 433] the same measures were 125 to 127 °C and 1.5 nM.
For `O=C([O-])CCCCOc1ccc(N/C=N/O)cc1.[Na+]` [Comp. 434] the same measures were above 300 °C and 3.2 nM.
Take `CC(=O)OCC(COc1ccc(N/C=N/O)cc1)OC(C)=O` (centres unmarked) [Comp. 435]: the melting point lay in the range of 133 to 134.5 °C. The compound also returned a 50% inhibitory concentration (IC50) in data set [1] of 2.2 nM.
Consider `OCC(O)COc1ccc(N/C=N/O)cc1` (centres unmarked) [Comp. 436], for which the melting point lay within 140.5 to 141 °C. Moreover, inhibition in data set [1] was half-maximal at 79.2 nM (IC50).
Compound `CC(C)Sc1ccc(N/C=N/O)cc1` [Comp. 439] registered a melting point of 144.1 to 144.2 °C. In addition, in data set [1], the “Inhibition rate (1 μM)” value is 92.3 and 2.9 nM corresponded to half-maximal inhibition (IC50).
Compound `O/N=C/Nc1ccc(SCc2ccccc2)cc1` [Comp. 441, N-[4-(benzylthio)phenyl]-N′-hydroxyformamidine] came in with a melting point of 166 °C. For the same compound, in data set [1], the “Inhibition rate (1 μM)” value is 94.2.
`OCCSc1ccc(N/C=N/O)cc1` [Comp. 444] came in with a melting point of 121 °C. In data set [1], the “Inhibition rate (1 μM)” value stood at 100.7 and the 50% inhibitory concentration (IC50) is 12.1 nM.
Regarding `CN(C)CCSc1ccc(N/C=N/O)cc1` [Comp. 445], the melting point worked out at 112 °C. Further, in data set [1], the “Inhibition rate (1 μM)” value was determined as 95.1.
`O/N=C/Nc1ccc(SCc2ccco2)cc1` [Comp. 448]: the melting point lay within 125 to 126.5 °C. Further, in data set [1], the “Inhibition rate (1 μM)” value turned out to be 109.8 and half-maximal inhibition (IC50) required 1.9 nM.
The like results for `CCC(C)Sc1ccc(N/C=N/O)cc1` (centres unmarked) [Comp. 449] were, in that order, 119 to 120.5 °C, 105.1 and 1.8 nM.
As to `CC(C)(C)Sc1ccc(N/C=N/O)cc1` [Comp. 456], the melting point lay within 143 to 145 °C. Moreover, in data set [1], the “Inhibition rate (1 μM)” value is reported as 94.4 and it took 6.3 nM to reach half-maximal inhibition (IC50).
The like results for `OCCCSc1ccc(N/C=N/O)cc1` [Comp. 459] were, in that order, 108 to 108.5 °C, 119.0 and 2.4 nM.
